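Test compounds were applied to cells in 96-well plates for 48 hours at 5 doses. GI50 = concentration required for 50% inhibition of growth.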 The source made the active and inactive calls. Cut-off read from the data, not from the text of the source: active = GI50 up to about 1.1 µM and inactive = higher.

Some test systems named below: HCT-15; HL-60; HT-29; K562; KM12; MOLT-4; NCI-H226; OVCAR-3; OVCAR-4; SF-268; SF-295; SF-539; SK-OV-3; SNB-19; SNB-75; SW-620; U-251; UACC-257; UACC-62; UO-31.
Holding throughout (assay): NCI tumour cell line growth inhibition, 48 h

With `CCCSCC(P(=O)(O)O)P(=O)(O)O.NC1CCCCC1`, the GI50 with HCT-15 is more than 100 µM; in the assay with HL-60, > 100 µM (inactive); in the assay on HT-29 it was > 100 µM (inactive); with K562 it was > 100 µM (inactive); in the assay with KM12 it was 7.46 µM (inactive); in the assay on MOLT-4, > 100 µM (inactive). Also, the GI50 in the assay with NCI-H226 is > 100 µM (inactive); in the assay with OVCAR-3, 55.7 µM (inactive); in the assay on OVCAR-4, > 100 µM (inactive); in the assay with SF-268, > 100 µM (inactive); in the assay with SF-295, > 100 µM (inactive); in the assay with SF-539, > 100 µM (inactive). Further, the GI50 in the assay with SK-OV-3, in the assay on SNB-19, with SNB-75, in the assay with SW-620, in the assay on U-251 and with UACC-257 was > 100 µM (inactive) each time. Also, the GI50 in the assay with UACC-62 and in the assay with UO-31 was > 100 µM (inactive) each time.

With `CCCCC#CS(=O)(=O)C(F)(F)F`, the GI50 in the assay with HCT-15 was 90.4 µM; with HL-60, 23.2 µM (inactive); with HT-29, 22.4 µM (inactive); with K562 it was 45.4 µM (inactive); in the assay with KM12, > 83.9 µM (inactive); in the assay with MOLT-4 it was 33.1 µM (inactive). For the same molecule, the GI50 with NCI-H226 is > 100 µM (inactive); with OVCAR-3 it was > 56.4 µM (inactive); in the assay on OVCAR-4, 27.9 µM (inactive); with SF-268, > 72.4 µM (inactive); with SF-295 it was 20.3 µM (inactive); in the assay with SF-539, > 100 µM (inactive). Also, the GI50 was > 94.2 µM (inactive) in the assay on SK-OV-3; > 90.2 µM (inactive) in the assay with SNB-19; 36.6 µM (inactive) in the assay on SNB-75; > 100 µM (inactive) with SW-620; 76.6 µM (inactive) with U-251; 12.9 µM (inactive) in the assay on UACC-257. Moreover, the GI50 is 48.2 µM (inactive) in the assay on UACC-62 and 68.9 µM (inactive) in the assay with UO-31.

Regarding `COC(=O)c1nc(-c2ccc3c(n2)C(=O)C(=N)C(OC)=C3O)c(N)c(-c2ccc(OC)c(OC)c2O)c1C`, the GI50 was 1.13 µM with HCT-15; 0.357 µM (active) in the assay with HL-60; 1.73 µM (inactive) with HT-29; 1.93 µM (inactive) in the assay on K562; 1.68 µM (inactive) in the assay with KM12; 2.04 µM (inactive) in the assay on MOLT-4. Besides, the GI50 in the assay on NCI-H226 is 0.324 µM (active); in the assay with OVCAR-3, 0.445 µM (active); in the assay on OVCAR-4, 1.66 µM (inactive); with SF-268, 0.769 µM (active); in the assay with SF-295 it was 0.449 µM (active); in the assay on SF-539, 0.363 µM (active). In addition, the GI50 in the assay with SK-OV-3 was 1.18 µM (inactive); with SNB-19 it was 0.628 µM (active); in the assay on SNB-75, 0.984 µM (active); in the assay on SW-620, 1.33 µM (inactive); with U-251, 0.377 µM (active); in the assay on UACC-257 it was 0.419 µM (active). The GI50 was 0.29 µM (active) in the assay with UACC-62 and 0.729 µM (active) with UO-31.

The values are drawn from ChEMBL document CHEMBL1201862, “PubChem BioAssay data set” (2004).
